# Columns and labels:
# E. feacalis = assay: Minimum inhibitory concentration (MIC) in vitro, agar dilution method; assay type: cell-based; details: hydrate; for MIC50 / MIC90 / MICrange: E. feacalis (5 strains), clinically isolated
# Procedure, shortened: (§1)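 Agar dilution MIC per CLSI/NCCLS method against clinical isolates collected in Sichuan and Beijing, 2007-2008. Compounds dissolved in DMSO, diluted in sterile water; vancomycin and linezolid as controls. Per-strain MICs reported alongside MIC50, MIC90 and MIC range.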
# S. epidermidis MSSE = assay: as above; assay type: cell-based; details: hydrate; for MIC50 / MIC90 / MICrange: S. ep MSSE (10 strains), clinically isolated
# Procedure, shortened: as §1
# [1] = tested on: Staphylococcus aureus MRSA; assay: as above; assay type: cell-based; details: hydrate; for MIC50 / MIC90 / MICrange: S. MRSA (10 strains), clinically isolated
# Procedure, shortened: as §1
# E. feacium = assay: as above; assay type: cell-based; details: hydrate; for MIC50 / MIC90 / MICrange: E. feacium (5 strains), clinically isolated
# Procedure, shortened: as §1
# S. epidermidis MRSE = assay: as above; assay type: cell-based; details: hydrate; for MIC50 / MIC90 / MICrange: S. ep MRSE (10 strains), clinically isolated
# Procedure, shortened: as §1
# [2] = tested on: Staphylococcus aureus MSSA; assay: as above; assay type: cell-based; details: hydrate; for MIC50 / MIC90 / MICrange: S. MSSA (11 strains), clinically isolated
# Procedure, shortened: as §1
# [3] = Solubility in different solvents according to Chinese Pharmacopeia (2005 edition); assay type: physicochemical; details: for Solubility compared with the anhydride: different solvents; for Result: at the given solute:solvent ratio
# Procedure: The solubility of the (S)—[N-3-(3′-fluoro-4′-(4″-phenylpiperazinyl))phenyl-2-oxo-5-oxazolelidinyl]methylacetamide hydrates was tested with different solvents, and the test results are shown in Tables 15-19. The solubility was measured according to Chinese Pharmacopeia (2005 edition).
# Staphylococcus aureus = assay: Minimum inhibitory concentration (MIC) in vitro, agar dilution method, quality control strain; assay type: cell-based; details: strain S. AT C C25923 (Table 7 No. 1); hydrate
# Procedure, shortened: as §1
# [4] = strain Efa 116 (Table 8 No. 16)
# [5] = strain Efa 907 (Table 8 No. 19)
# [6] = strain Efa 3006 (Table 8 No. 18)
# [7] = strain Efa 33748 (Table 8 No. 17)
# [8] = strain S. ep MSSE87 (Table 7 No. 23)
# [9] = strain S. ep MSSE88 (Table 8 No. 5)
# [10] = strain S. ep MSSE113 (Table 7 No. 24)
# [11] = strain S. ep MSSE116 (Table 7 No. 25)
# [12] = strain S. ep MSSE118 (Table 8 No. 2)
# [13] = strain S. ep MSSE119 (Table 7 No. 27)
# [14] = strain S. ep MSSE137 (Table 8 No. 4)
# [15] = strain S. ep MSSE140 (Table 8 No. 3)
# [16] = strain S. ep MSSE142 (Table 7 No. 26)
# [17] = strain S. ep MSSE153 (Table 8 No. 1)
# [18] = strain S. MRSA 29 (Table 7 No. 15)
# [19] = strain S. MRSA 101 (Table 7 No. 14)
# [20] = strain S. MRSA 201 (Table 7 No. 13)
# [21] = strain S. MRSA B27 (Table 7 No. 21)
# [22] = strain S. MRSA B105 (Table 7 No. 17)
# [23] = strain S. MRSA B143 (Table 7 No. 19)
# [24] = strain S. MRSA B151 (Table 7 No. 20)
# [25] = strain S. MRSA B164 (Table 7 No. 16)
# [26] = strain S. MRSA B199 (Table 7 No. 22)
# [27] = strain S. MRSA B617 (Table 7 No. 18)
# [28] = strain Efm 171 (Table 8 No. 25)
# [29] = strain Efm 197 (Table 8 No. 22)
# [30] = strain S. ep MRSE4 (Table 8 No. 9)
# [31] = strain S. ep MRSE20 (Table 8 No. 6)
# [32] = strain S. ep MRSE87 (Table 8 No. 13)
# [33] = strain S. ep MRSE90 (Table 8 No. 10)
# [34] = strain S. ep MRSE101 (Table 8 No. 7)
# [35] = strain S. ep MRSE105 (Table 8 No. 11)
# [36] = strain S. ep MRSE140 (Table 8 No. 14)
# [37] = strain S. ep MRSE142 (Table 8 No. 12)
# [38] = strain S. ep MRSE210 (Table 8 No. 15)
# [39] = strain S. ep MRSE211 (Table 8 No. 8)
# [40] = strain S. MSSA 123 (Table 7 No. 3)
# [41] = strain S. MSSA 187 (Table 7 No. 7)
# [42] = strain S. MSSA 195 (Table 7 No. 6)
# [43] = strain S. MSSA 195 (Table 7 No. 12)
# [44] = strain S. MSSA 201 (Table 7 No. 11)
# [45] = strain S. MSSA 232 (Table 7 No. 2)
# [46] = strain S. MSSA 275 (Table 7 No. 10)
# [47] = strain S. MSSA 466 (Table 7 No. 8)
# [48] = strain S. MSSA 519 (Table 7 No. 9)
# [49] = strain S. MSSA 520 (Table 7 No. 4)
# [50] = strain S. MSSA 580 (Table 7 No. 5)
compound,measurement,setting,value
"CC(=O)NC[C@H]1CN(c2ccc(N3CCN(c4ccccc4)CC3)c(F)c2)C(=O)O1 [2/7 hydrate, (S)—[N-3-(3′-fluoro-4′-(4″-phenylpiperazinyl))phenyl-2-oxo-5-oxazolidinyl]methyl acetamide 2/7 hydrate]",MIC50,E. feacalis,0.25 mg/L
same,MIC90,E. feacalis,0.5 mg/L
same,MICrange,E. feacalis,0.125 to 0.5 µg/mL
same,MIC,E. feacalis; [4],0.5 mg/L
same,MIC,E. feacalis; [5],0.25 mg/L
same,MIC,E. feacalis; [6],0.25 mg/L
same,MIC,E. feacalis; [7],0.5 mg/L
same,MIC50,S. epidermidis MSSE,0.5 mg/L
same,MIC90,S. epidermidis MSSE,0.5 mg/L
same,MICrange,S. epidermidis MSSE,0.25 to 0.5 µg/mL
same,MIC,S. epidermidis MSSE; [8],0.125 mg/L
same,MIC,S. epidermidis MSSE; [9],0.5 mg/L
same,MIC,S. epidermidis MSSE; [10],0.25 mg/L
same,MIC,S. epidermidis MSSE; [11],0.25 mg/L
same,MIC,S. epidermidis MSSE; [12],0.5 mg/L
same,MIC,S. epidermidis MSSE; [13],0.25 mg/L
same,MIC,S. epidermidis MSSE; [14],0.5 mg/L
same,MIC,S. epidermidis MSSE; [15],0.5 mg/L
same,MIC,S. epidermidis MSSE; [16],0.5 mg/L
same,MIC,S. epidermidis MSSE; [17],0.5 mg/L
same,MIC50,[1],0.5 mg/L
same,MIC90,[1],0.5 mg/L
same,MICrange,[1],0.5 to 1 µg/mL
same,MIC,[1]; [18],0.5 mg/L
same,MIC,[1]; [19],1 mg/L
same,MIC,[1]; [20],0.5 mg/L
same,MIC,[1]; [21],0.5 mg/L
same,MIC,[1]; [22],0.5 mg/L
same,MIC,[1]; [23],0.5 mg/L
same,MIC,[1]; [24],0.5 mg/L
same,MIC,[1]; [25],0.5 mg/L
same,MIC,[1]; [26],0.5 mg/L
same,MIC,[1]; [27],0.5 mg/L
same,MIC50,E. feacium,1 mg/L
same,MIC90,E. feacium,1 mg/L
same,MICrange,E. feacium,0.5 to 1 µg/mL
same,MIC,E. feacium; strain Efm 98 (Table 8 No. 21),0.5 mg/L
same,MIC,E. feacium; [28],1 mg/L
same,MIC,E. feacium; [29],0.5 mg/L
same,MIC,E. feacium; strain Efm N3 (Table 8 No. 23),1 mg/L
same,MIC,E. feacium; strain Efm N4 (Table 8 No. 24),1 mg/L
same,MIC50,S. epidermidis MRSE,0.5 mg/L
same,MIC90,S. epidermidis MRSE,0.5 mg/L
same,MICrange,S. epidermidis MRSE,0.25 to 0.5 µg/mL
same,MIC,S. epidermidis MRSE; [30],0.25 mg/L
same,MIC,S. epidermidis MRSE; [31],0.5 mg/L
same,MIC,S. epidermidis MRSE; [32],0.5 mg/L
same,MIC,S. epidermidis MRSE; [33],0.5 mg/L
same,MIC,S. epidermidis MRSE; [34],0.25 mg/L
same,MIC,S. epidermidis MRSE; [35],0.5 mg/L
same,MIC,S. epidermidis MRSE; [36],0.5 mg/L
same,MIC,S. epidermidis MRSE; [37],0.5 mg/L
same,MIC,S. epidermidis MRSE; [38],0.5 mg/L
same,MIC,S. epidermidis MRSE; [39],0.5 mg/L
same,MIC50,[2],0.5 mg/L
same,MIC90,[2],0.5 mg/L
same,MICrange,[2],0.5 to 1 µg/mL
same,MIC,[2]; [40],0.5 mg/L
same,MIC,[2]; [41],0.5 mg/L
same,MIC,[2]; [42],1 mg/L
same,MIC,[2]; [43],0.5 mg/L
same,MIC,[2]; [44],0.5 mg/L
same,MIC,[2]; [45],0.5 mg/L
same,MIC,[2]; [46],0.5 mg/L
same,MIC,[2]; [47],0.5 mg/L
same,MIC,[2]; [48],0.5 mg/L
same,MIC,[2]; [49],0.25 mg/L
same,MIC,[2]; [50],0.25 mg/L
same,Solubility compared with the anhydride,[3],sometimes more soluble than the anhydride
same,Result,[3]; solvent 0.1N Hydrochloric acid,Dissolved
same,Result,[3]; solvent 0.1N Sodium hydroxide,Insoluble
same,Result,[3]; solvent Acetonitrile,Dissolved
same,Result,[3]; solvent Ethanol,Dissolved
same,Result,[3]; solvent Methanol,Dissolved
same,Result,"[3]; solvent Water, hydrate",Dissolved
same,MIC,Staphylococcus aureus,0.5 mg/L
"CC(=O)NC[C@H]1CN(c2ccc(N3CCN(c4ccccc4)CC3)c(F)c2)C(=O)O1 [3/4 hydrate, (S)—[N-3-(3′-fluoro-4′-(4″-phenylpiperazinyl))phenyl-2-oxo-5-oxazolidinyl]methyl acetamide 3/4 hydrate]",MIC50,E. feacalis,2 mg/L
same,MIC90,E. feacalis,4 mg/L
same,MICrange,E. feacalis,1 to 4 µg/mL
same,MIC,E. feacalis; strain Efa 54 (Table 8 No. 20),2 mg/L
same,MIC,E. feacalis; [4],2 mg/L
same,MIC,E. feacalis; [5],1 mg/L
same,MIC,E. feacalis; [6],2 mg/L
same,MIC,E. feacalis; [7],4 mg/L
same,MIC50,S. epidermidis MSSE,0.5 mg/L
same,MIC90,S. epidermidis MSSE,1 mg/L
same,MICrange,S. epidermidis MSSE,0.5 to 1 µg/mL
same,MIC,S. epidermidis MSSE; [8],0.5 mg/L
same,MIC,S. epidermidis MSSE; [9],1 mg/L
same,MIC,S. epidermidis MSSE; [10],0.5 mg/L
same,MIC,S. epidermidis MSSE; [11],0.5 mg/L
same,MIC,S. epidermidis MSSE; [12],0.5 mg/L
same,MIC,S. epidermidis MSSE; [13],1 mg/L
same,MIC,S. epidermidis MSSE; [14],1 mg/L
same,MIC,S. epidermidis MSSE; [15],0.5 mg/L
same,MIC,S. epidermidis MSSE; [16],1 mg/L
same,MIC,S. epidermidis MSSE; [17],1 mg/L
same,MIC50,[1],1 mg/L
same,MIC90,[1],1 mg/L
same,MICrange,[1],0.5 to 1 µg/mL
same,MIC,[1]; [18],0.5 mg/L
same,MIC,[1]; [19],1 mg/L
same,MIC,[1]; [20],1 mg/L
same,MIC,[1]; [21],0.5 mg/L
same,MIC,[1]; [22],1 mg/L
same,MIC,[1]; [23],1 mg/L
same,MIC,[1]; [24],1 mg/L
same,MIC,[1]; [25],1 mg/L
same,MIC,[1]; [26],0.5 mg/L
same,MIC,[1]; [27],1 mg/L
same,MIC50,E. feacium,2 mg/L
same,MIC90,E. feacium,4 mg/L
same,MICrange,E. feacium,1 to 4 µg/mL
same,MIC,E. feacium; strain Efm 98 (Table 8 No. 21),2 mg/L
same,MIC,E. feacium; [28],2 mg/L
same,MIC,E. feacium; [29],1 mg/L
same,MIC,E. feacium; strain Efm N3 (Table 8 No. 23),4 mg/L
same,MIC,E. feacium; strain Efm N4 (Table 8 No. 24),4 mg/L
same,MIC50,S. epidermidis MRSE,1 mg/L
same,MIC90,S. epidermidis MRSE,1 mg/L
same,MICrange,S. epidermidis MRSE,1 µg/mL
same,MIC,S. epidermidis MRSE; [30],1 mg/L
same,MIC,S. epidermidis MRSE; [31],1 mg/L
same,MIC,S. epidermidis MRSE; [32],1 mg/L
same,MIC,S. epidermidis MRSE; [33],1 mg/L
same,MIC,S. epidermidis MRSE; [34],1 mg/L
same,MIC,S. epidermidis MRSE; [35],1 mg/L
same,MIC,S. epidermidis MRSE; [36],1 mg/L
same,MIC,S. epidermidis MRSE; [37],1 mg/L
same,MIC,S. epidermidis MRSE; [38],1 mg/L
same,MIC,S. epidermidis MRSE; [39],1 mg/L
same,MIC50,[2],1 mg/L
same,MIC90,[2],1 mg/L
same,MICrange,[2],0.5 to 1 µg/mL
same,MIC,[2]; [40],1 mg/L
same,MIC,[2]; [41],1 mg/L
same,MIC,[2]; [42],1 mg/L
same,MIC,[2]; [43],1 mg/L
same,MIC,[2]; [44],0.5 mg/L
same,MIC,[2]; [45],1 mg/L
same,MIC,[2]; [46],0.5 mg/L
same,MIC,[2]; [47],0.5 mg/L
same,MIC,[2]; [48],1 mg/L
same,MIC,[2]; [49],1 mg/L
same,MIC,[2]; [50],1 mg/L
same,Solubility compared with the anhydride,[3],sometimes more soluble than the anhydride
same,Result,[3]; solvent 0.1N Hydrochloric acid,Dissolved
same,Result,[3]; solvent 0.1N Sodium hydroxide,Insoluble
same,Result,[3]; solvent Acetonitrile,Dissolved
same,Result,[3]; solvent Ethanol,Dissolved
same,Result,[3]; solvent Methanol,Dissolved
same,Result,"[3]; solvent Water, listed as ¾ hydrate, hydrate",Dissolved
same,MIC,Staphylococcus aureus,1 mg/L
